In patent publication US6384085B1, “Material separated from Ecklonia cava, method for extracting and purifying the same, and use thereof as antioxidants” (Ventree Co., Ltd., priority 2000, dated 2002):

What was measured:
[1] = Thermal stability: antioxidative activity (DPPH) after heating for 1 hour; assay type: physicochemical
Method: (§1) The antioxidative activity of the novel compound obtained through the extraction and purification process is evaluated by measuring its radical scavenging activity against 1,1-diphenyl-2-picrylhydrazyl (DPPH), which has free radicals attached thereto, according to the Blois method. A thermal stability of the compound of interest can be evaluated by measuring its antioxidative activity at plural temperature points.
(§2) Dicaval C obtained in Example 3 was measured for antioxidative activity according to the Blois method. For this, an examination was made of the radical scavenging activity of the compound against 1,1-diphenyl-2-picrylhydrazyl (DPPH) to which free radicals were attached. First, 20 mg of DPPH was dissolved in 150 ml of ethanol to prepare a DPPH solution. To 600 μl of the DPPH solution was added 250 μl of dimethylsulfoxide (DMSO), diluted with an appropriate amount of ethanol and shaken for 10 seconds, after which this control was adjusted, in absorbance at 517 nm, from 0.94 to 0.97. To 1 ml of the DPPH solution which was adjusted from 0.94 to 0.97 likewise, each of the samples (μg to mg) was added and then, reacted for 10 min, followed by measuring the absorbance of the solution. The antioxidative activity of each of the samples was determined by the DPPH radical scavenging activity which was represented by a reduced absorbance compared with that of the control.
50 μg of Dicaval C obtained in Example 3 was heated at 40° C., 60° C., 80° C., and 100° C. for 1 hour to measure antioxidative activity.

[2] = Antioxidative activity: DPPH radical scavenging activity according to the Blois method; assay type: biochemical; conditions: 10 min reaction, absorbance at 517 nm
Method: as §1, §2

[3] = 50 μg heated at 40 °C for 1 hour
[4] = 50 μg heated at 60 °C for 1 hour
[5] = 50 μg heated at 80 °C for 1 hour
[6] = 50 μg heated at 190 °C [sic] for 1 hour

Structure (SMILES) | Antioxidativity (Absorb. change) [1, 3] | Notes (thermal stability) [1, 3] | Antioxidativity (Absorb. change) [1, 4] | Notes (thermal stability) [1, 4] | Antioxidativity (Absorb. change) [1, 5] | Notes (thermal stability) [1, 5] | Antioxidativity (Absorb. change) [1, 6] | Notes (thermal stability) [1, 6] | DPPH radical scavenging activity (antioxidative activity) ([2]; sample amount 10 μg) [%] | DPPH radical scavenging activity (antioxidative activity) ([2]; sample amount 20 μg) [%] | DPPH radical scavenging activity (antioxidative activity) ([2]; sample amount 100 μg) [%]
Oc1cc(O)cc(Oc2cc(O)c(O)c3c2Oc2c(O)cc(O)cc2O3)c1 [Dicaval C] | 0.87 | Stable | 0.86 | Stable | 0.89 | Stable | 0.88 | Stable | 82 | 100 | 100
O=C1O[C@H]([C@@H](O)CO)C(O)=C1O [Ascorbic acid, reference compound] |  |  |  |  |  |  |  |  | 100 | 100 | 100
